Non-standard residues stand in square brackets, D forms with d. Residues, ends and D or L forms follow the SMILES beside them. *: point of attachment. Hexanoyl = CCCCCC(=O)*; Ahx = NCCCCCC(=O)O

Usually Tmax stands for the time at which the peak concentration occurs.

Data set [1] is described as follows: Fosgonimeton CNS distribution in rats. As to conditions: 12 mg/kg fosgonimeton SC. It is filed as in vivo, rat. As to the method:
Three male Sprague Dawley rats per time point were given 12 mg/kg fosgonimeton via SC injection. At 0.16, 0.5, and 1 h after dosing, animals were humanely killed and perfused with chilled saline. Brains were collected and dissected into the following brain regions: whole brain, striatum, olfactory bulb, hippocampus, cerebellum, cerebral cortex, and brainstem. Brain regions were homogenized and the exposures of fosgonimeton and fosgo-AM were determined by LC/MS/MS.

Data set [2] can be described thus: Plasma PK in rats after SC injection. It is filed as in vivo, rat. The method, then:
Four male rats were treated with 10 mg/kg fosgo-AM in DMSO via SC injection. Blood was serially collected at 0.08, 0.25, 0.5, 1, 2, and 4 h after dosing. Plasma was obtained by centrifugation with 2% disodium ethylenediaminetetraacetic acid (EDTA) as an anticoagulant. Plasma samples were precipitated with acetonitrile containing internal standard, and the concentration of fosgo-AM was determined by LC/MS/MS.
This study was conducted as described in the “Fosgo-AM PK in Rats” section with the following changes: animals were given 12 mg/kg fosgonimeton in saline with 0.1% glycine via SC injection, and a dose-linear correction was applied to normalize the dose to 10 mg/kg for comparison with the fosgo-AM study. Sample concentrations of both fosgonimeton and fosgo-AM were determined.

The nature of data set [3]: Simulated intestinal and gastric fluid stability. It is filed as in vitro ADME. The note with it: 1 h, 5 µM, 37 °C. As to the method:
Simulated intestinal and gastric fluid studies were contracted to Quintara Discovery Inc, Hayward, California. Simulated intestinal fluid was freshly prepared with 8.7 mM NaOH, 28.65 mM NaH2PO4, 5.85 mM NaCl, with a final pH of 6.8. […] was added to a final concentration of 0.32%. Simulated gastric fluid was prepared with 34.2 mM NaCl. The pH was adjusted to 1.2, and […] was added to a final concentration of 1%. Fosgo-AM was added to the simulated fluids to achieve a concentration of 5 µM. After mixing, samples were transferred to 96-well plates in duplicate (25 μL/well) and incubated at 37 °C. At time 0, 1, 2, and 4 h, 150 μL quench solution (100% acetonitrile with 0.1% formic acid) and bucetin internal standard was added to the appropriate wells. Plates were sealed and centrifuged at 4 °C for 15 min at 4000 rpm. The supernatant was transferred to fresh plates for liquid chromatography/[…] mass spectrometry (LC/MS/MS) analysis. The extent of metabolism was calculated as the disappearance of the test compound compared with the time = 0 incubations.

For another data set, the system named is ERK (Thr202/Tyr204). Kind of data set: Phospho-ERK HTRF assay in HEK293 cells. In kind it is cell-based, human. As to conditions: HEK293, subthreshold HGF 0.1 ng/mL + fosgo-AM 1 µM, vs HGF alone. From the text: To determine phosphoactivation status of the intracellular signaling molecules ERK (Thr202/Tyr204) or AKT (Ser473), we used homogenous time-resolved fluorescence (HTRF) kits to assess phosphorylation status based on the energy transfer between donor and acceptor phospho-ERK (pERK) or phospho-AKT (pAKT) antibodies. HTRF kit processing for pERK (Phospho-ERK [Thr202/Tyr204] cellular Advanced kit, #64AERPEG, Cisbio, Codolet, France) and pAKT (Phospho-AKT [Ser473] cellular kit, #64AKSPEG, Cisbio, Codolet, France) were carried out per manufacturer instructions. In brief, HEK293 cells were grown at 37 °C, 5% CO2 in DMEM + 10% FBS until approximately 80% confluent. Cells were seeded in polystyrene-treated 96-well cell culture plates at approximately 50,000 cells/well and cultured overnight in 50 µL serum-free growth media. […] Fluorescence emission at 2 different wavelengths (665 nm and 620 nm) were measured on an Envision plate reader (PerkinElmer, Waltham, Massachusetts), and the HTRF ratio of the acceptor and donor emission signals for each well was calculated as follows: HTRF ratio = (665 nm/620 nm) × 10,000. […] Data were assessed for normality (Shapiro–Wilk) and homoscedasticity (Brown-Forsythe). Statistical significance was determined by one-way analysis of variance (ANOVA) with Tukey’s multiple comparison post-test. […]
A general note: Time-resolved FRET reads energy transfer from a long-lived donor to a nearby acceptor.

As to `CCCCCC(=O)N[C@@H](Cc1ccc(O)cc1)C(=O)N[C@H](C(=O)NCCCCCC(N)=O)[C@@H](C)CC` [fosgo-AM] (Hexanoyl-Tyr-Ile-[Ahx]-NH2), the “time to maximum concentration (Tmax) in brain regions” value in data set [1] (all regions) amounted to 10 min. In addition, the “Cmax, ng/g ± SEM” value in data set [1] (brainstem) is reported as 58.3 ± 11.3 ng/g; in data set [1] (cerebellum) it was 23.8 ± 4.1 ng/g; in data set [1] (cerebral cortex), 36.5 ± 12.0 ng/g; in data set [1] (hippocampus) it was 49.8 ± 30.5 ng/g; in data set [1] (olfactory bulb), 43.7 ± 7.3 ng/g; in data set [1] (striatum) it was 24.1 ± 12.8 ng/g. Further, the “Cmax, ng/g ± SEM” value in data set [1] (whole brain) is listed as 31.9 ± 23.8 ng/g. Moreover, the “Tmax” value in data set [1] (brainstem), in data set [1] (cerebellum), in data set [1] (cerebral cortex), in data set [1] (hippocampus), in data set [1] (olfactory bulb) and in data set [1] (striatum) was 9.6 min each time. In data set [1] (whole brain), the “Tmax” value turned out to be 9.6 min. The “fosgo-AM maximum concentration (Cmax) in plasma” value in data set [2] (after SC delivery of fosgonimeton (12 mg/kg, normalized to 10 mg/kg), after metabolism) was determined as 1198 ng/mL; in data set [2] (after direct SC delivery of fosgo-AM 10 mg/kg), 329 ng/mL. Moreover, the remaining after exposure in data set [3] (simulated gastric fluid) was 7.8%; in data set [3] (simulated intestinal fluid), 0.1%. For the same molecule, in the data set with ERK (Thr202/Tyr204), the pERK levels entry was “significant increase”.

These data come from PMC10121968, “Fosgonimeton, a Novel Positive Modulator of the HGF/MET System, Promotes Neurotrophic and Procognitive Effects in Models of Dementia” (Neurotherapeutics, 2022).
